# Measurements: patent US6268391A, “Benzylidene-1,3-dihydro-indol-2-one derivatives a receptor tyrosine kinase inhibitors, particularly of Raf kinases” (Glaxo Wellcome Inc., priority 1997, dated 2001)
# Read-outs that look alike come from different tables or passages of the source.
# Biological target: T1, Human cRaf1 (Homo sapiens, UniProt P04049)
# T1 construct: poly-histidine (C); made in house
# Test: Raf kinase assay (cRaf1 assay / Raf/MEK cascade assay)
# Format: biochemical
# [1] = Table 3, read-out: Raf Kinase activity
# T1 sequence (P04049 whole entry): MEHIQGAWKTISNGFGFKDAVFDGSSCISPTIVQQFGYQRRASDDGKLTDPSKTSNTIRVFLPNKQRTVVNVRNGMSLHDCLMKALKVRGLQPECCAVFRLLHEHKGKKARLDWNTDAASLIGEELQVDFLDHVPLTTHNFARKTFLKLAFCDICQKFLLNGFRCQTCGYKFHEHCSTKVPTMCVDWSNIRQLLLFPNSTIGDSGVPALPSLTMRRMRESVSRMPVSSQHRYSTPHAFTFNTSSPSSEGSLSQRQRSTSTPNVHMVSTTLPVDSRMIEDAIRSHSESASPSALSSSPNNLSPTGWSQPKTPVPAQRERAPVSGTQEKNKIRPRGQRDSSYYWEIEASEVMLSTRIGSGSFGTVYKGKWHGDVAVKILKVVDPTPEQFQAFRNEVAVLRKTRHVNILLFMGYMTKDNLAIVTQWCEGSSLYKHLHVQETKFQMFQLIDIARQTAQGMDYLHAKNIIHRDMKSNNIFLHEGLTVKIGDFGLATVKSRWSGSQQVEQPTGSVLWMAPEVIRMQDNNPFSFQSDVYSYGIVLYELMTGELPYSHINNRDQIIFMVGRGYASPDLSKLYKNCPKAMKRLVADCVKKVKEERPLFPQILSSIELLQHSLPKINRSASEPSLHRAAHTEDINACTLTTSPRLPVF
smiles,measurement,setting,value
"O=C1Nc2ccc3[nH]nnc3c2C1=Cc1cc(Br)c(O)c(Br)c1 [Example 132, 8-(3,5-Dibromo-4-hydroxy-benzylidene)-6,8-dihydro-3H-1,2,3,6-tetraaza-as-indacen-7-one]",IC50,[1],< 1000 nM
"Nc1nc(-c2ccc3c(c2)C(=Cc2cc(Cl)c(O)c(Cl)c2)C(=O)N3)cs1 [Example 134, 5-(2-Amino-thiazol-4-yl)-3-(3,5-dichloro-4-hydroxy-benzylidene)-1,3-dihydro-indol-2-one]",IC50,[1],< 1000 nM
"Nc1nc2ccc3c(c2s1)C(=Cc1cc(Br)c(O)c(Br)c1)C(=O)N3 [Example 135, 2-Amino-8-(3,5-dibromo-4-hydroxy-benzylidene)-6,8-dihydro-1-thia-3,6-diaza-as-indacen-7-one]",IC50,[1],< 1000 nM
"CC(=O)Nc1nc(-c2ccc3c(c2)C(=Cc2cc(Br)c(O)c(Br)c2)C(=O)N3)cs1 [Example 136, 5-(N-Acetyl-2-amino-thiazol-4-yl)-3-(3,5-dibromo-4-hydroxy-benzylidene)-1,3-dihydro-indol-2-one]",IC50,[1],< 1000 nM
"NC(=O)c1ccc2c(c1)C(=Cc1cc(Br)c(O)c(Br)c1)C(=O)N2 [Example 137, 3-(3,5-Dibromo-4-hydroxy-benzylidene)-2-oxo-2,3-dihydro-1H-indol-5-carboxylic acid amide]",IC50,[1],< 1000 nM
"O=C1Nc2ccc(-c3cccnc3)cc2C1=Cc1cc(Br)c(O)c(Br)c1 [Example 138, 3-(3,5-Dibromo-4-hydroxy-benzylidene)-5-pyrid-3-yl-1,3-dihydro-indol-2-one]",IC50,[1],< 1000 nM
"O=C1Nc2ccc(-c3ccsc3)cc2C1=Cc1cc(Br)c(O)c(Br)c1 [Example 139, 3-(3,5-Dibromo-4-hydroxy-benzylidene)-5-thiophen-3-yl-1,3-dihydro-indol-2-one]",IC50,[1],< 1000 nM
CNc1nc(-c2ccc3c(c2)C(=Cc2cc(Br)c(O)c(Br)c2)C(=O)N3)cs1 [Example 140],IC50,[1],< 1000 nM
CNc1nc(-c2ccc3c(c2)C(=Cc2cc(Cl)c(O)c(Cl)c2)C(=O)N3)cs1 [Example 141],IC50,[1],< 1000 nM
"O=C1Nc2ccc(-c3nnn[nH]3)cc2C1=Cc1cc(Br)c(O)c(Br)c1 [Example 142, 3-(3,5-Dibromo-4-hydroxy-benzylidene)-5-(1H-tetrazol-5-yl)-1,3-dihydro-indol-2-one]",IC50,[1],< 1000 nM
"Cc1nc(-c2ccc3c(c2)C(=Cc2cc(Br)c(OC(=O)N(CCO)CCO)c(Br)c2)C(=O)N3)cs1 [Example 144, N[bis(2-Hydroxyethyl)]-carbamic acid 2,6 dibromo-4-[5-(2-methyl-thiazol-4-yl)-2-oxo-1,2-dihydro-indol-3-ylidenemethyl]-phenyl ester]",IC50,[1],10000 to 100000 nM
"Cc1nnc(-c2ccc3c(c2)C(=Cc2cc(Br)c(O)c(Br)c2)C(=O)N3)o1 [Example 145, 3-(3,5-Dibromo-4-hydroxy-benzylidene)-5-(5-methyl-[1,3,4]oxadiazol-2-yl)-1,3-dihydro-indol-2-one]",IC50,[1],< 1000 nM
"O=C(OCc1ccccc1)Oc1c(Br)cc(C=C2C(=O)Nc3ccc(Cl)cc32)cc1Br [Example 146, Benzyl 2,6-dibromo-4-[(5-chloro-2-oxo-1,2-dihydro-3H-indol-3-ylidene)methyl]phenyl carbonate]",IC50,[1],10000 to 100000 nM
"CCOC(=O)Oc1c(Br)cc(C=C2C(=O)Nc3ccc(Cl)cc32)cc1Br [Example 147, 2,6-Dibromo-4-[(5-chloro-2-oxo-1,2-dihydro-3H-indol-3-ylidene)methyl]phenyl ethyl carbonate]",IC50,[1],10000 to 100000 nM
"CC(C)COC(=O)Oc1c(Br)cc(C=C2C(=O)Nc3ccc(Cl)cc32)cc1Br [Example 148, 2,6-Dibromo-4-[(5-chloro-2-oxo-1,2-dihydro-3H-indol-3-ylidene)methyl]phenyl isobutyl carbonate]",IC50,[1],10000 to 100000 nM
"O=C(OCc1cccnc1)Oc1c(Br)cc(C=C2C(=O)Nc3ccc(Cl)cc32)cc1Br [Example 149, 2,6-Dibromo-4-[(5-chloro-2-oxo-1,2-dihydro-3H-indol-3-ylidene)methyl]phenyl 3-pyridinylmethyl carbonate]",IC50,[1],10000 to 100000 nM
"CC(C)(C)C(=O)OCOc1c(Br)cc(C=C2C(=O)Nc3ccc(Cl)cc32)cc1Br [Example 150, 2,6-Dibromo-4-[(5-chloro-2-oxo-1,2-dihydro-3H-indol-3-ylidene)methyl]phenoxymethyl pivalate]",IC50,[1],10000 to 100000 nM
"O=C1Nc2ccc(I)cc2C1=Cc1cc(Br)c(OC(=O)N2CCOCC2)c(Br)c1 [Example 151, 2,6-Dibromo-4-[(5-iodo-2-oxo-1,2-dihydro-3H-indol-3-ylidene)methyl]phenyl 4-morpholinecarboxylate]",IC50,[1],10000 to 100000 nM
"O=C(NCCOCCO)Oc1c(Br)cc(C=C2C(=O)Nc3ccc(I)cc32)cc1Br [Example 152, 2,6-Dibromo-4-[(5-iodo-2-oxo-1,2-dihydro-3H-indol-3-ylidene)methyl]phenyl N-[2-(2-hydroxyethoxy)ethyl]carbamate]",IC50,[1],< 1000 nM
"CN1CCN(C(=O)Oc2c(Br)cc(C=C3C(=O)Nc4ccc(I)cc43)cc2Br)CC1 [Example 153, 2,6-Dibromo-4-[(5-iodo-2-oxo-1,2-dihydro-3H-indol-3-ylidene)methyl]phenyl 4-methyltetrahydro-1(2H)-pyrazinecarboxylate]",IC50,,10000 to 100000 nM
"CCN(CC)C(=O)Oc1c(Br)cc(C=C2C(=O)Nc3ccc(I)cc32)cc1Br [Example 154, 2,6-Dibromo-4-[(5-iodo-2-oxo-1,2-dihydro-3H-indol-3-ylidene)methyl]phenyl N,N-diethylcarbamate]",IC50,[1],10000 to 100000 nM
"O=C1Nc2ccc(C(=O)O)cc2C1=Cc1cc(Br)c(O)c(Br)c1 [Example 156, 3-(3,5-Dibromo-4-hydroxy-benzylidene)-2-oxo-2,3-dihydro-1H-indol-5-carboxylic acid]",IC50,[1],< 1000 nM
"O=C1Nc2ccc(S(=O)(=O)N(CCO)CCO)cc2C1=Cc1cc(Br)c(O)c(Br)c1 [Example 157, 3-[(3,5-Dibromo-4-hydroxyphenyl)methylidene]-N,N-bis(2-hydroxyethyl)-2-oxo-5-indolinesulfonamide]",IC50,[1],< 1000 nM
"O=C1Nc2ccc(NC(=O)c3ccccc3)cc2C1=Cc1cc(Br)c(O)c(Br)c1 [Example 158, N-3-[(3,5-Dibromo-4-hydroxyphenyl)methylidene]-2-oxo-2,3-dihydro-1H-indol-5-ylbenzamide]",IC50,[1],< 1000 nM
CC(=O)Nc1ccc2c(c1)C(=Cc1cc(Br)c(O)c(Br)c1)C(=O)N2 [Example 159],IC50,[1],< 1000 nM
"O=C(CO)Nc1ccc2c(c1)C(=Cc1cc(Br)c(O)c(Br)c1)C(=O)N2 [Example 160, N-3-[(3,5-Dibromo-4-hydroxyphenyl)methylidene]-2-oxo-2,3-dihydro-1H-indol-5-yl-2-hydroxyacetamide]",IC50,[1],< 1000 nM
"O=C1Nc2ccc(C(=O)NCCCc3ccccc3)cc2C1=Cc1cc(Br)c(O)c(Br)c1 [Example 161, 3-[(3,5-Dibromo-4-hydroxyphenyl)methylidene]-2-oxo-N-(3-phenylpropyl)-5-indolinecarboxamide]",IC50,[1],< 1000 nM
"O=C1Nc2ccc(C(=O)NCc3ccccc3)cc2C1=Cc1cc(Br)c(O)c(Br)c1 [Example 162, N-Benzyl-3-[(3,5-dibromo-4-hydroxyphenyl)methylidene]-2-oxo-5-indolinecarboxamide]",IC50,[1],< 1000 nM
"CN(C)c1ccc2c(c1)C(=Cc1cc(Br)c(O)c(Br)c1)C(=O)N2 [Example 163, 3-[(3,5-Dibromo-4-hydroxyphenyl)methylidene]-5-(dimethylamino)-1,3-dihydro-2H-indol-2-one]",IC50,[1],< 1000 nM
